Source: paper PMC10935098 (Molecules, 2024)
Converted amounts (≈) assume the structure as drawn.

How the values were obtained:
[1] = system: Candida tropicalis (BNCC340288); experiment: microbe, parasite or virus in culture; conditions: 24 h, read-out: MIC, C. tropical
[2] = system: Candida parapsilosis (BNCC336015); experiment: microbe, parasite or virus in culture; conditions: Lodderomyces parapsilosis, 24 h, read-out: MIC, C. parapsilosis

## Clc1ccccc1C(c1ccccc1)(c1ccccc1)n1ccnc1 [clotrimazole]
[1]
  MIC: 12.5 µM (≈ 4.31 µg/mL)
[2]
  MIC: 25 µM (≈ 8.62 µg/mL)
